Results on two molecules are retold here after publication PMC9246714, “Characterization of inositol lipid metabolism in gut-associated Bacteroidetes” (Nature Microbiology, 2022).

In one data set the target is T1, BT_1526 MIPS (Bacteroides thetaiotaomicron, UniProt Q8A7J8).
T1 construct: full-length wild-type ORF (synthetic gene), pET-28a, N-terminal His6 tag, E. coli BL21(DE3); HisTrap and Superdex S200; tetramer in crystal
T1 sequence (Q8A7J8 1-429): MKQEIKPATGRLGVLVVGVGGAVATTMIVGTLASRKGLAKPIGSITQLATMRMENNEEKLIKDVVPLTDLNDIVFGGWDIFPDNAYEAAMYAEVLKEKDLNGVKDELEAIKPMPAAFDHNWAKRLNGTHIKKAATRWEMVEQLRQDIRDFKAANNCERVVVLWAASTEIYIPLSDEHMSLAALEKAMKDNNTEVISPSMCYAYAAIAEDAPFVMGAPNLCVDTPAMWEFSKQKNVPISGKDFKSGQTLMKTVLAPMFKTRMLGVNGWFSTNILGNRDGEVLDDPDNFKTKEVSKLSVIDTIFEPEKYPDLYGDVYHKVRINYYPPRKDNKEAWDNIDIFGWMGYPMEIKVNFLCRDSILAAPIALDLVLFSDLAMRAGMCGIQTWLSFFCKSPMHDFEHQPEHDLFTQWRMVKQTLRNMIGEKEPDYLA
The data set is described as follows: X-ray crystal structure, […] Å. As to conditions: cofactor binding site; crystals grown at pH 6.5, 20 °C.

Data set [1] deals with the molecule itself. The data set is described as follows: crystal structure; sitting drop vapour diffusion, 20 °C; 200 mM sodium formate, 100 mM bis tris propane pH 6.5, 20% (w/v) PEG 3350; protein at 11.4 mg/ml; MIPS:NAD complex.

In the case of `NC(=O)c1ccc[n+]([C@@H]2O[C@H](COP(=O)(O)OP(=O)(O)OC[C@H]3O[C@@H](n4cnc5c(N)ncnc54)[C@H](O)[C@@H]3O)[C@@H](O)[C@H]2O)c1` [NAD, NAD+], the “X-ray crystal structure, 2.0 Å” value on BT_1526 MIPS is on record as “the structure of the MIPS:NAD complex in the cofactor binding site”.

B1: BT_1526 myo-inositol phosphate synthase (MIPS) of Bacteroides thetaiotaomicron (enzyme, UniProt Q8A7J8 1-429, looked up)
chain: T1 sequence (Q8A7J8 1-429)
notes: myo-inositol phosphate synthase BT_1526 of Bacteroides thetaiotaomicron VPI-5482; synthetic gene encoding the BT_1526 open reading frame (wild type) in pET-28a; No cleavage of the His tag is described; also called BT_1526 MIPS; BT MIP synthase; source: E. coli BL21 (DE3), purified (HisTrap, Superdex S200 size-exclusion chromatography)
As for B1, the stoichiometry N (commonly the number of molecules, sites or subunits per partner or assembly) in data set [1] stood at 4.
